Values of other authors as cited in paper PMC12181400, “Leveraging viral genome sequences and machine learning models for identification of potentially selective antiviral agents” (Communications Chemistry, 2025).
Structures can show the parent of a compound that is named as a salt. Where two headings read alike, the source gives them in different places.

Assays:
Details in all cases: cited from earlier work
[1] = tested on: cell viability (tox21-car-agonist-p1)
[2] = tested on: cell viability (tox21-are-bla-p1)
[3] = tested on: cell viability (tox21-car-antagonist-p1)
[4] = tested on: cell viability (tox21-ar-mda-kb2-luc-antagonist-p2)
[5] = tested on: cell viability (tox21-ar-mda-kb2-luc-agonist-p3)
[6] = tested on: cell viability (tox21-ap1-agonist-p1)
[7] = curve rank −9 to 9, 0 = inactive, ref NCATS Tox21 public data browser

| SMILES | tox21-car-agonist-p1-viability (curve rank) [1, 7] | tox21-are-bla-p1-viability (curve rank) [2, 7] | tox21-car-antagonist-p1-viability (curve rank) [3, 7] | tox21-ar-mda-kb2-luc-antagonist-p2-viability (curve rank) [4, 7] | tox21-ar-mda-kb2-luc-agonist-p3-viability (curve rank) [5, 7] | tox21-ap1-agonist-p1-viability (curve rank) [6, 7] | tox21-car-agonist-p1-viability (curve rank) [1] | tox21-are-bla-p1-viability (curve rank) [2] | tox21-car-antagonist-p1-viability (curve rank) [3] | tox21-ar-mda-kb2-luc-antagonist-p2-viability (curve rank) [4] | tox21-ar-mda-kb2-luc-agonist-p3-viability (curve rank) [5] | tox21-ap1-agonist-p1-viability (curve rank) [6] |
| --- | --- | --- | --- | --- | --- | --- | --- | --- | --- | --- | --- | --- |
| Cc1nc(C)c(Cl)c(O)c1Cl [Clopidol] | 0 | 0 | 0 | 0 | 0 | -0.67 |  |  |  |  |  |  |
| NS(=O)(=O)c1cc2c(cc1Cl)NC(C1CC3C=CC1C3)NS2(=O)=O (stereo not drawn) [Cyclothiazide] | 0 | 0 | 0 | 0 | 0 | 0 |  |  |  |  |  |  |
| c1ccc2c(CC3=NCCN3)cccc2c1 [Naphazoline hydrochloride] |  |  |  |  |  |  | 0 | 0 | 0 | 0 | 0 | 0 |
| CCOC(=O)[N-]c1cn(N2CCOCC2)n[o+]1 [Molsidomine] |  |  |  |  |  |  | 0 | 0 | 0 | 0 | 0 | 0 |
| O=C(O)CCCCC(=O)O [Hexanedioic acid] | 0 | 0 | 0 | 0 | 0 | 0 |  |  |  |  |  |  |
| c1ccc2c(c1)CCCC2C1=NCCN1 (stereo not drawn) [Tetrahydrozoline hydrochloride] |  |  |  |  |  |  | 0 | 0 | 0 | 0 | 0 | 0 |
| COc1cccc(C2(O)CCCCC2CN(C)C)c1.Cl (stereo not drawn) [Tramadol hydrochloride] | 0 | 0 | 0 | 0 | 0 | 0 |  |  |  |  |  |  |
| O=C(Cn1ccnc1[N+](=O)[O-])NCCO [Etandazole] |  |  |  |  |  |  | 0 | 0 | 0 | 0 | 0 | 0 |
| CC(N/C(=N\C#N)Nc1ccncc1)C(C)(C)C (stereo not drawn) [Pinacidil monohydrate] |  |  |  |  |  |  | 0 | 0 | 0 | 0 | 0 | 0 |
| CC(C)(Oc1ccc(Cl)cc1)C(=O)O [Clofibric acid] |  |  |  |  |  |  | 0 | 0 | 0 | 0 | 0 | 0 |
| CC(=O)Nc1nnc(S(N)(=O)=O)s1 [Acetazolamide] |  |  |  |  |  |  | 0 | 0 | 0 | 0 | 0 | 0 |
| OCC(O)CN1CCN(c2ccccc2)CC1 (stereo not drawn) [Dropropizine] | 0 | 0 | 0 | 0 | 0 | 0 |  |  |  |  |  |  |
| C[C@H](O)C(=O)Nc1c(I)c(C(=O)NC(CO)CO)c(I)c(C(=O)NC(CO)CO)c1I [Iopamidol] |  |  |  |  |  |  | 0 | 0 | 0 | 0 | 0 | 0 |
| FC(F)(F)c1ccccc1-n1ccnc1 [1-[2-(Trifluoromethyl)phenyl]-1H-imidazole] | 0 | 0 | 0 | 0 | 0 | 0 |  |  |  |  |  |  |
| Cc1ccccc1OCC(O)CO (stereo not drawn) [Mephenesin] |  |  |  |  |  |  | 0 | 0 | 0 | 0 | 0 | 0 |
| Oc1ccc(Cl)cc1 [4-Chlorophenol] | 0 | 0 | 0 | 0 | 0 | 0 |  |  |  |  |  |  |
| C[C@]12CCC(=O)C=C1CC[C@@H]1[C@@H]2[C@@H](O)C[C@@]2(C)[C@H]1CC[C@]2(O)C(=O)CO [Hydrocortisone] |  |  |  |  |  |  | 0 | 0 | 0 | 0 | 0 | 0 |
| CCCCCC(N)=O [Hexanamide] | 0 | 0 | 0 | 0 | 0 | 0 |  |  |  |  |  |  |
| CC(O)Cn1cnc2c1c(=O)n(C)c(=O)n2C (stereo not drawn) [Proxyphylline] |  |  |  |  |  |  | 0 | 0 | 0 | 0 | 0 | 0 |
| CCCCCC(C)N.O=S(=O)(O)O (stereo not drawn) [2-Aminoheptane sulfate] | 0 | 0 | 0 | 0 | 0 | 0 |  |  |  |  |  |  |
| Nc1ccc(C(=O)Oc2ccccc2)c(O)c1 [Phenyl 4-aminosalicylate] | 0 | 0 | 0 | 0 | 0 | 0 |  |  |  |  |  |  |
| NC(=O)NC(=O)Cc1ccccc1 [Phenacemide] | 0 | 0 | 0 | 0 | 0 | 0 |  |  |  |  |  |  |
